Laboratory results as given in patent US20100035762A1, “Prognostic Methods in Colorectal Cancer” (Oryzon Genomics, S.A., priority 2006, published 2010).

Columns and labels:
[1] = test system: EphB4 gene expression in SW620 cells; assay: Treatment of colorectal cancer cell line SW620, EphB4 gene expression by RT-PCR; type: cell-based; details: 72 h
Experimental: (§1) Top panel: changes in gene expression a measured by RT-PCR. Lower panel: changes in methylation a measure by PCR on bisulfite treated DNA with methylation specific primers.
(§2) Cultures of the colorectal cancer cell line SW620, characterized by a low expression level and methylation the EphB4 promoter; were treated during 72 h with different concentrations of 5aza- cytidin.

[2] = test system: EphB4 promoter; assay: Treatment of SW620, EphB4 promoter methylation by PCR on bisulfite treated DNA with methylation specific primers; type: cell-based; details: SW620 cells
Experimental: as §1, §2

## Nc1ncn([C@@H]2O[C@H](CO)[C@@H](O)[C@H]2O)c(=O)n1 [5-aza-cytidine]
[1]
  most effective dose for increase of EphB4 gene expression: 10 µM
[1]; different concentrations
  level of EphB4 gene expression: increase
[2]
  methylation of the EphB4 promoter: reduces the methylation
